{
  "source": "patent US8293979B2",
  "about": "“Weed controller metabolism proteins, genes, thereof and use of the same” (Sumitomo Chemical Company, Limited, priority 2001, dated 2012)",
  "key": {"[1]": {"test_system": "present invention protein (A1)", "type": "in vitro ADME, Streptomyces phaeochromogenes IFO12898", "conditions": "E. coli JM109/pKSN657F cell suspension, compound at 100 ppm, shaking at 30° C., ethyl acetate layer, HPLC", "experimental": "E. coli JM109/pKSN657F was cultured overnight at 37° C. in 3 ml of TB medium containing 50 μg/ml of ampicillin. A milliliter (1 ml) of the obtained culture medium was transferred to 100 ml of TB medium containing 50 μg/ml of ampicillin and cultured at 26° C. When OD660 reached about 0.5, 5-aminolevulinic acid was added to the final concentration of 500 μM, and the culturing was continued. Thirty (30) minutes thereafter, IPTG was added to a final concentration of 1 mM, and there was further culturing for 20 hours.\nThe cells were recovered from the culture medium, washed with 0.1M tris-HCl buffer (pH7.5) and suspended in 10 ml of 0.1M Tris-HCl buffer containing 1% glucose. Compound (VI) was added to the obtained cell suspension to a final concentration of 100 ppm and that was incubated with shaking at 30° C. At each of 0 hours after and 1 day after the start of shaking, 2 ml of the cell suspension were fractioned. Fifty microliters (50 μl) of 2N HCl were added to each and those were extracted with 2 ml of ethyl acetate. The obtained ethyl acetate layers were analyzed on a HPLC under reaction condition 1. Compared to the concentration of compound (VI) detected from the ethyl acetate layer prepared from the cell suspension at 0 hours after the start of shaking, the concentration of compound (VI) detected from the ethyl acetate later prepared from the cell suspension at 1 day after the start of shaking was lower. Further a peak, which was not detected from the ethyl acetate layer prepared from the cell suspension at 0 hours after the start of shaking, was detected from the ethyl acetate layer prepared from the cell suspension at 1 day after the start of shaking Mass spectrometry of the compound contained in said peak was conducted. […]\nOther than utilizing compound (VIII) instead of compound (VI), there was conducted in accordance with the method described in Example 41(6), a culturing of E. coli JM109/pKSN657F, preparation of the cell suspension solution, incubation with shaking of the cell suspension solution to which compound (VIII) was added, reagent preparation from the cell suspension solution and HPLC analysis of the reagents. Compared to the concentration of compound (VIII) detected from the ethyl acetate layer prepared from the cell suspension at 0 hours after the start of shaking, the concentration of compound (VIII) detected from the ethyl acetate layer prepared from the cell suspension at 1 day after the start of shaking was lower. Further two peaks, which were not detected from the ethyl acetate layer prepared from the cell suspension at 0 hours after the start of shaking, were detected from the ethyl acetate layer prepared from the cell suspension at 1 day after the start of shaking Mass spectrometry of the compounds contained in said peaks were conducted. […]"}, "[2]": {"test_system": "present invention protein (A11)", "assay": "Metabolism of compound (X) by the present invention protein (A11), E. coli JM109/pKSN849AF cell suspension", "type": "in vitro ADME, Streptomyces nogalator IFO13445", "conditions": "compound at 25 ppm, shaking at 30° C., fractioned at 0 hours and 4 days, ethyl acetate layer, HPLC", "experimental": "Each of E. coli JM109/pKSN849AF and E. coli JM109/pKSN2 was cultured overnight at 37° C. in 3 ml of TB culture containing 50 μg/ml of ampicillin. A milliliter (1 ml) of the obtained culture mediums was transferred to 100 ml of TB medium containing 50 μg/ml of ampicillin and cultured at 26° C. When OD660 reached about 0.5, 5-aminolevulinic acid was added to the final concentration of 500 μM, and the culturing was continued. Thirty (30) minutes thereafter, IPTG was added to a final concentration of 1 mM, and there was further culturing for 18 hours.\nThe cells were recovered from the culture medium, washed with 0.1M tris-HCl buffer (pH7.5) and suspended in 10 ml of 0.1M Tris-HCl buffer containing 1% glucose. […] The obtained ethyl acetate layers were analyzed on a HPLC under reaction condition 1. Compared to the concentration of compound (X) detected from the ethyl acetate layer prepared from the JM109/pKSN2 cell suspension, the concentration of compound (X) detected from the ethyl acetate layer prepared from the JM109/pKSN849AF cell suspension was lower. Further 3 peaks, which were not detected from the ethyl acetate layer prepared from the JM109/pKSN2 cell suspension, were detected from the ethyl acetate layer prepared from the JM109/pKSN849AF cell suspension. […]"}},
  "data": [
    {"smiles": "C=CCOC(=O)C(C)(C)OC(=O)c1cc(-n2c(=O)cc(C(F)(F)F)n(C)c2=O)ccc1Cl", "note": "[compound (X)]", "values": [
      {"measurement": "concentration of the compound detected from the cell suspension at 1 day compared to 0 hours after the start of shaking", "setting": "[1]", "value": "lower"},
      {"measurement": "concentration of the compound detected from the JM109/pKSN849AF cell suspension compared to the JM109/pKSN2 cell suspension", "setting": "[2]", "value": "lower"}
    ]}
  ]
}
